Data: patent publication US20190038571A1, “Orally Available Small Molecules to Inhibit the Function of the Complement System” (priority 2017, published 2019)

Tests used:
C5a receptor = molecular target: T1, C5a receptor (Mus musculus, UniProt P30993); conditions: cited from earlier work
T1 sequence (P30993 1-351): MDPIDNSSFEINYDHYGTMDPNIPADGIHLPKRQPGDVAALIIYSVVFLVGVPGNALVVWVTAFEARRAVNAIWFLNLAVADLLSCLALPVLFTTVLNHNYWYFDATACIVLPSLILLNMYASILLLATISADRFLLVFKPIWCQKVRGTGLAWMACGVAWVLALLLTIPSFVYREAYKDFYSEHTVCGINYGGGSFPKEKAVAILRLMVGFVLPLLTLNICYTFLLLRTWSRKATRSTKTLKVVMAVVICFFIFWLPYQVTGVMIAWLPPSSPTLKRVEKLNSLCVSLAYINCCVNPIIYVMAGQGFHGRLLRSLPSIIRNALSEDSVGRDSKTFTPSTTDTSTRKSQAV

[1] = tested on: classical complement pathway; assay: sheep erythrocyte lysis assay (complement-mediated lysis of sensitized sheep erythrocytes in normal human serum); assay type: cell-based; conditions: for Inhibition of complement-mediated sheep erythrocyte lysis: 240 nM to 50 uM added to normal human serum, 37° C., 30 min, hemoglobin absorption at 412 nm
Experimental: FIG. 1. […] Various concentrations of pterostilbene, ranging from 240 nM to 50 uM were added to normal human serum, which was then incubated at 37° C. with sensitized sheep erythrocytes.
The lysis of the sheep erythrocytes is mediated by the classical complement pathway.
Various concentrations of pterostilbene, ranging from 240 nM to 50 uM were added to normal human serum, which was then incubated at 37° C. with sensitized sheep erythrocytes. After a 30 min incubation, the remaining unlysed erythrocytes were pelleted by centrifugation and the amount of hemoglobin released by cell lysis was quantified by absorption spectroscopy at wavelength of 412 nm. Inhibition of lysis indicates reduced complement activity. This is representative data from 3 separate experiments.

[2] = in vivo; cited from earlier work
CA1 neurons = conditions: in vivo; cited from earlier work

Row | Compound | beta amyloid induced loss of MAP-2 (C5a receptor) | Inhibition of complement-mediated sheep erythrocyte lysis [1] | concentration active to inhibit complement system ([1]; in human serum) | potency in the sheep erythrocyte lysis assay relative to the other stilbene ([1]; pterostilbene versus resveratrol) | bioavailability [2] | protection of CA1 neurons from ischemia reperfusion damage (CA1 neurons)
1 | PMX53 | blocked |  |  |  |  | 
2 | COc1cc(/C=C/c2ccc(O)cc2)cc(OC)c1 [CCB-695, pterostilbene] |  | inhibition of complement-mediated sheep erythrocyte lysis | lower than 1 μM | greater potency than resveratrol | superior pharmacokinetics and bioavailability | 
3 | Oc1ccc(C=Cc2cc(O)cc(O)c2)cc1 [Resveratrol] |  | active |  |  | poor bioavailability | protects CA1 neurons from ischemia reperfusion damage
